Data on four molecules can be found in patent publication US20240210412A1, “SULFONYL-TRIAZOLE COMPOUNDS USEFUL AS LIGANDS AND INHIBITORS OF PROSTAGLANDIN REDUCTASE 2” (University of Virginia Patent Foundation, priority 2021, published 2024).

In one assay the target is T1, PTGR2 (Homo sapiens, UniProt Q8N8N7).
T1 construct: host or cells: HEK293T
Kind of assay: PTGR2 enzymatic (15-keto-PGE2 substrate) assay after live-cell treatment. Type of assay: biochemical. To be noted: cells treated 2 h 37° C., up to 25 μM; 15-keto-PGE2 20 μM. How it is done:
PTGR2 enzymatic assay was performed based on a previously described chromogenic method^[17,81]. HEK293T cells expressing recombinant PTGR2 were treated with DMSO vehicle or indicated concentrations of SuTEx ligand for 2 hrs. The cells were washed with cold PBS twice and harvested. The proteomes were lysed in PBS by sonication and fractionated (100,000×g, 45 min, 4° C.). Soluble proteome (0.5 mg) was incubated for 30 min at 37° C. with 1 mM of EDTA, DTT, NADPH and 20 μM 15-Keto PGE2 in 0.1 M Tris-HCl (PH 7.5) (final volume of 230 μL) and the substrate consumed was determined by adding 20 μL 20 N NaOH, mixing and measuring absorbance at 500 nm after 5 min.
The effect of liganding tyrosine sites on the biochemical function of PTGR2 was investigated. PTGR2 has a role in metabolism and there is an ability to measure its biochemical activity using an established 15-keto-PGE2 substrate assay^[17-18]. In brief, recombinant PTGR2 expressing HEK293T cells were treated with DMSO, HHS-0701, or HHS-0101 (negative control) for 2 hours at 37° C. Cells were lysed and the soluble fractions incubated in an assay buffer containing 15-keto-PGE2 (20 μM) for 30 minutes at 37° C. After quenching reactions in NaOH, the amount of substrate remaining was quantified by absorbance of a red chromophore that forms in an alkaline solution of 15-keto-PGE2^[17-18]. […]

The target of assay [1] is T2, Q8N8N7 (prostaglandin reductase 2, PTGR2) (Homo sapiens, UniProt Q8N8N7).
T2 construct: endogenous in cells; host or cells: DM93 cells (SILAC), live-cell treatment
Kind of assay: SILAC LC-MS ABPP. Type of assay: cell-based. The protocol:
(§1) Cells were grown to 90-95% confluence before being washed once with warm, sterile DPBS (1×, 5 mL), followed by addition of 10 mL of serum-free media (supplemented with 1% L-glutamine) containing either DMSO or SuTEx fragment (in DMSO) was added. Light cells were treated with DMSO vehicle while the heavy cells were treated with DMSO or SuTEx fragment (in DMSO) and incubated for 2 hrs. After 2 hrs, the cells were treated with SuTEx alkyne probe (HHS475, 10 μL of 1000× DMSO stock) and incubated for an additional 2 hrs. The media was aspirated and cells washed with cold PBS (5 mL) and harvested. Cells were spun at 500×g for 5 min at 4° C. followed by removal of supernatant. Pellets were resuspended in 1 mL of cold DPBS and spun at 1,400×g for 3 min at 4° C. followed by removal of supernatant. The cells were lysed in PBS by sonication and fractionated (100,000×g, 45 min, 4° C.).The light and heavy soluble fractions were diluted to 2.3 mg/mL in PBS and 432 μL were used for analysis (1 mg total protein). The probe-modified proteomes were conjugated to desthiobiotin-PEG3-azide (10 μl of 10 mM stock in DMSO; 200 μM final concentration) using TCEP (10 μl of fresh 50 mM stock in water, 1 mM final concentration), TBTA ligand (33 μl of a 1.7 mM 4:1 t-butanol/DMSO stock, 100 μM final concentration) and CuSO4 (10 μl of 50 mM stock, 1 mM final concentration). Samples were vortexed to mix and incubated for 1 hr at room temperature. The heavy and light proteomes were mixed 1:1 and the subsequent steps, including LC-MS/MS data analysis, were performed as previously described^[8a].
(§2) Coupling cell-based screens with chemical proteomics can facilitate the identification of target protein and binding sites that engage and are irreversibly modified by covalent ligands^[12]. In these assays, covalent ligands block SuTEx activity-based probe (ABP) labeling at protein sites, and the competition of probe labeling can be used to quantify potency and selectivity across the proteome^[10a]. To facilitate quantitative chemical proteomics, DM93 melanoma cells were cultured using stable isotopic labeling by amino acids in cell culture (SILAC)^[13]. Cells cultured in “light” media were treated with dimethyl sulfoxide (DMSO) vehicle while cells cultured in “heavy” media were treated with SuTEx ligand (25 μM, 2 hours, 37° C.). Next, cells were treated with HHS-475 probe (100 μM, 2 hours, 37° C.) followed by lysis and processing of proteomes for analysis. Probe-modified proteins from the soluble fraction were conjugated to a desthiobiotin-azide tag by copper-catalyzed azide-alkyne cycloaddition (CuAAC)^[14] followed by mixing of the light and heavy proteomes. The combined proteomes were digested with trypsin protease to produce probe-modified peptides, followed by enrichment and purification by avidin affinity chromatography. Probe-modified peptides were resolved, identified, and quantified by high-resolution liquid chromatography-tandem mass spectrometry (LC-MS/MS). Resultant data were analyzed as previously described^[8a, 10a]. Table 2, below, lists sites of modification targeted by sulfonyl-triazole compounds HHS-0101, HHS-0201, HHS-0301, HHS-0401, and HHS-0701. The format of the table is as follows: protein Uniprot accession number (see uniprot.org); tyrosine site (amino acid position) modified; treatment (sulfonyl-triazole compound identification number, followed by Y (where if multiple compounds modify the same site, the compounds are separated by vertical lines).
Confirmatory studies were also performed on prostaglandin reductase 2 (PTGR2) because of its role in the reduction of the bioactive lipid, 15-keto-PGE2^[17]. […] The chemical proteomic studies also identified additional tyrosine sites (e.g. Y265) competed by HHS-0701 albeit to a lesser degree (SR<5) compared with Y100. […]

A further assay has as its system P22626. Kind of assay: SILAC LC-MS ABPP. Type of assay: cell-based, human. The note with it: 25 μM 2 h, live DM93 cells. The protocol: as §1, §2

T2 sequence (Q8N8N7 whole entry, one chain of several): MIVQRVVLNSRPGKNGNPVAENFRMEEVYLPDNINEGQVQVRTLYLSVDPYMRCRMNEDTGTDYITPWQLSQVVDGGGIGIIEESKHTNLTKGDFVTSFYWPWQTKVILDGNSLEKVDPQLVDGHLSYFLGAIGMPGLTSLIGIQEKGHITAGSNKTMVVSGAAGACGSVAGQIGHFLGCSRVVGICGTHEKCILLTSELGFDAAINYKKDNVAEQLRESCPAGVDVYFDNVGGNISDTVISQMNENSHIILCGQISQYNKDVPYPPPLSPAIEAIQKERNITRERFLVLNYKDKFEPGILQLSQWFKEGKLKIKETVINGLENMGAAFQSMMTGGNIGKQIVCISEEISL
T1 sequence (Q8N8N7 whole entry): as the sequence (Q8N8N7 whole entry, one chain of several) above

Consider `O=C(c1ccc(S(=O)(=O)n2cncn2)cc1)N1CCC(c2ccccc2)CC1` [HHS-0701, (4-((1H-1,2,4-triazol-1-yl)sulfonyl)phenyl)(4-phenylpiperidin-1-yl)methanone], for which the “inhibition of PTGR2 biochemical activity” value at PTGR2 is on record as “concentration-dependent inhibition of PTGR2 activity”. In assay [1] (25 μM 2 h, live DM93 cells), the “SILAC ratio (SR), PTGR2 Y100” value was found to be 11; the “SILAC ratio (SR), PTGR2 Y265” value is recorded as less than 5; the “liganded tyrosine site 100” value is recorded as “HHS0701.Y (tyrosine sites that showed >80% reductions (SR >5) in probe labeling in cells treated with compounds (liganded sites))”. In addition, the “PTGR2 Y100 liganded” value in assay [1] (ligand-treated DM93 cells) was roughly 90%.

On to `O=C(NCC1CC1)c1ccc(S(=O)(=O)n2cncn2)cc1` [HHS-0201, 4-((1H-1,2,4-triazol-1-yl)sulfonyl)-N-(cyclopropylmethyl)benzamide], for which, in the assay with P22626, the “liganded tyrosine site 244” value is reported as “HHS0201.Y (tyrosine sites that showed >80% reductions (SR >5) in probe labeling in cells treated with compounds (liganded sites))”, the “liganded tyrosine site 247” value is “HHS0201.Y (tyrosine sites that showed >80% reductions (SR >5) in probe labeling in cells treated with compounds (liganded sites))” and the “liganded tyrosine site 283” value was “HHS0201.Y (tyrosine sites that showed >80% reductions (SR >5) in probe labeling in cells treated with compounds (liganded sites))”.

As to `O=C(NCc1ccccc1)c1ccc(S(=O)(=O)n2cncn2)cc1` [HHS-0401, 4-((1H-1,2,4-triazol-1-yl)sulfonyl)-N-benzylbenzamide], in assay [1] (25 μM 2 h, live DM93 cells), the “liganded tyrosine site 265” value is listed as “HHS0401.Y (tyrosine sites that showed >80% reductions (SR >5) in probe labeling in cells treated with compounds (liganded sites))”.

Take `O=C(NC1CC1)c1ccc(S(=O)(=O)n2cncn2)cc1` [HHS-0101, 4-((1H-1,2,4-triazol-1-yl)sulfonyl)-N-cyclopropylbenzamide]: the “inhibition of PTGR2 biochemical activity” value against PTGR2 is listed as “No inhibitory activity”. Further, in the assay with P22626, the “liganded tyrosine site 262” value is given as “HHS0101.Y (tyrosine sites that showed >80% reductions (SR >5) in probe labeling in cells treated with compounds (liganded sites))”. For the same molecule, the “SILAC ratio (SR), PTGR2 Y100” value in assay [1] (25 μM 2 h, live DM93 cells) was 1.4.
